# Laboratory results from patent US9212168B2 (priority 2011, dated 2015).
# Test system: HCV genotype 1a replicon
# Assay: HCV genotype 1a replicon assay (NS3 protease activity readout)
# Assay type: cell-based, hepatitis C virus
# Details: HCV genotype 1a replicon
# Procedure, shortened: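 Genotype 1a subgenomic replicon cells (APC89, Huh7.5) were treated with compound dose-responses in G418-free medium, 0.5% DMSO final, for 48 or 72 hours at 37° C. Lysate NS3/4a protease activity measured with 15 μM FRET substrate, 20 min at 37° C (ex 340/em 509 nm); EC50 by 4-parameter fit.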
row,Structure (SMILES),Genotype 1a
1,COC(=O)N[C@H](C(=O)N1C[C@@H](C)C[C@H]1c1nc(-c2ccc(-c3ccc(NC(=O)c4ccc(N5CCN(C(=O)N(C)C)C[C@H]5C)nc4)cc3C(F)(F)F)cc2)c[nH]1)C(C)C [Example 1-64],"C (C represents pEC50 between and 9 and about 10, (EC50 between 1 nM and 0.1 nM))"
2,COC(=O)N[C@H](C(=O)N1C[C@@H](C)C[C@H]1c1nc(-c2ccc(-c3cc(F)c(C(=O)Nc4ccc(N5CCN(C(=O)C(C)(C)C)C[C@H]5C)nc4)cc3OC(F)(F)F)cc2)c(Cl)[nH]1)C(C)C [Example 4-45],"C (C represents pEC50 between and 9 and about 10, (EC50 between 1 nM and 0.1 nM))"
3,COC(=O)NC(C(=O)N1CC(C)CC1c1nc(-c2ccc(-c3cc(F)c(NC(=O)c4ccc(N5CCN(C(=O)C6CC6(Cl)Cl)CC5C)nc4)cc3Cl)cc2)c[nH]1)C(C)C (mixture of isomers) [Example 1-77],D (D represents pEC50>10 (EC50<0.1 nM))
4,COC(=O)N[C@H](C(=O)N1C[C@@H](C)C[C@H]1c1nc(-c2ccc(-c3cc(Cl)c(NC(=O)c4ccc(N5CCN(C(=O)C6CC6)C[C@H]5C)nc4)cc3C(F)(F)F)cc2)c[nH]1)C(C)C [Example 1-54],D (D represents pEC50>10 (EC50<0.1 nM))
5,COC(=O)N[C@H](C(=O)N1C[C@@H](C)C[C@H]1c1nc(-c2ccc(-c3cc(Cl)c(C(=O)Nc4ccc(N5CCN(C(=O)C(C)(C)C)C[C@H]5C)nc4)cc3OC(F)(F)F)cc2)c(Cl)[nH]1)C(C)C [Example 4-47],"C (C represents pEC50 between and 9 and about 10, (EC50 between 1 nM and 0.1 nM))"
6,COC(=O)N[C@H](C(=O)N1C[C@@H](O)C[C@H]1c1nc(-c2ccc(-c3cc(Cl)c(NC(=O)c4ccc(N5CCN(C(=O)C(C)(C)C)C[C@H]5C)nc4)cc3OC(F)(F)F)cc2)c[nH]1)C(C)C [Example 26-8],"C (C represents pEC50 between and 9 and about 10, (EC50 between 1 nM and 0.1 nM))"
7,CNC(=O)N1CCC[C@@H]1C(=O)N1CCN(c2ccc(C(=O)Nc3cc(OC(F)(F)F)c(-c4ccc(-c5c[nH]c([C@@H]6C[C@H](C)CN6C(=O)[C@@H](NC(=O)OC)C(C)C)n5)cc4)cc3Cl)cn2)[C@H](C)C1 [Example 1-38],D (D represents pEC50>10 (EC50<0.1 nM))
8,COC(=O)N[C@H](C(=O)N1C[C@H](O)C[C@H]1c1nc(-c2ccc(-c3ccc(NC(=O)c4ccc(N5CCN(C(=O)[C@]6(C)CCCN6C(=O)OC)C[C@H]5C)nc4)cc3)cc2)c[nH]1)C(C)C [Example 26-1],A (A represents a pEC50 value between 6 and 8 (EC50 between 1 μM and 10 nM))
9,COC(=O)N[C@H](C(=O)N1C[C@@H](C)C[C@H]1c1nc(-c2ccc(-c3ccc(C(=O)Nc4ccc(N5C[C@H](C)N(C(=O)C(C)(C)C)C[C@H]5C)nc4)cc3OC(F)(F)F)cc2)c(Cl)[nH]1)C(C)C [Example 4-26],D (D represents pEC50>10 (EC50<0.1 nM))
10,COC(=O)N[C@H](C(=O)N1C[C@@H](O)C[C@H]1c1nc(-c2ccc(-c3cc(F)c(NC(=O)c4ccc(N5CCN(C(=O)C(C)(C)C)C[C@H]5C)nc4)cc3OC(F)(F)F)cc2)c[nH]1)C(C)C [Example 26-6],"C (C represents pEC50 between and 9 and about 10, (EC50 between 1 nM and 0.1 nM))"
11,COC(=O)N[C@H](C(=O)N1C[C@@H](C)C[C@H]1c1nc(-c2ccc(-c3cc(Cl)c(NC(=O)c4ccc(N5CCN(C(=O)[C@H]6CCCN6C(=O)OC)C[C@H]5C)nc4)cc3OC(F)(F)F)cc2)c[nH]1)C(C)C [Example 1-37],D (D represents pEC50>10 (EC50<0.1 nM))
12,COC(=O)N[C@H](C(=O)N1C[C@@H](OC)C[C@H]1c1nc(-c2ccc(-c3cc(Cl)c(C(=O)Nc4ccc(N5CCN(C(=O)C(C)(C)CO)C[C@H]5C)nc4)cc3OC(F)(F)F)cc2)c[nH]1)C1CCOCC1 [Example 22-17],D (D represents pEC50>10 (EC50<0.1 nM))
13,COC(=O)NC(C(=O)N1C[C@@H](C)C[C@H]1c1nc(-c2ccc(-c3c(F)cc(NC(=O)c4ccc(N5CCN(C(=O)C(C)(C)C)C[C@H]5C)nc4)cc3F)cc2)c[nH]1)C1CCCCC1 (stereo partly drawn) [Example 21-1],A (A represents a pEC50 value between 6 and 8 (EC50 between 1 μM and 10 nM))
14,COC(=O)NC(C(=O)N1CC(OC)CC1c1nc(-c2ccc(-c3ccc(NC(=O)c4ccc(N5CCN(C(=O)C(C)(C)C)CC5C)nc4)cc3OC(F)(F)F)cc2)c[nH]1)C(C)O (stereo not drawn) [Example 16-10],"C (C represents pEC50 between and 9 and about 10, (EC50 between 1 nM and 0.1 nM))"
15,COC(=O)N[C@H](C(=O)N1C[C@@H](C)C[C@H]1c1nc(-c2ccc(-c3cc(F)c(C(=O)Nc4ccc(N5CCN(C(=O)C(C)(C)C)C[C@H]5C)nc4)cc3OC(F)(F)F)cc2)c[nH]1)C(C)C [Example 4-41],"C (C represents pEC50 between and 9 and about 10, (EC50 between 1 nM and 0.1 nM))"
16,COC(=O)N[C@H](C(=O)N1C[C@@H](C)C[C@H]1c1nc(-c2ccc(-c3cc(Cl)c(NC(=O)c4ccc(N5CCN(C(=O)C6CCC6C)C[C@H]5C)nc4)cc3OC(F)(F)F)cc2)c[nH]1)C(C)C (stereo partly drawn) [Example 1-91],D (D represents pEC50>10 (EC50<0.1 nM))

# Same assay, conditions: Hepatitis C virus, read-out: Genotype 1a, HCV genotype 1a replicon
row,Structure (SMILES),EC50
1,CNC(=O)N1C[C@@H](C)N(c2ccc(C(=O)Nc3cc(OC(F)(F)F)c(-c4ccc(-c5c[nH]c([C@@H]6C[C@H](C)CN6C(=O)C(c6ccccc6)N(C)C)n5)cc4)cc3Cl)cn2)C[C@@H]1C (stereo partly drawn) [Example 7-11],< 0.1 nM
2,COC(=O)N[C@H](C(=O)N1[C@@H]2C[C@@H]2C[C@H]1c1nc(-c2ccc(-c3cc(Cl)c(NC(=O)c4ccc(N5CCN(C(=O)C6CC6)C[C@H]5C)nc4)cc3C(F)(F)F)cc2)c[nH]1)C(C)C [Example 8-3],0.1 to 1 nM
3,COC(=O)N[C@H](C(=O)N1C[C@@H](C)C[C@H]1c1nc(-c2ccc(-c3cc(F)c(NC(=O)c4ccc(N5CCN(C(=O)C(C)(C)CO)C[C@H]5C)nc4)cc3OC(F)(F)F)cc2)c[nH]1)[C@H](C)OC [Example 13-25],0.1 to 1 nM
4,COC(=O)N[C@H](C(=O)N1C[C@@H](C)C[C@H]1c1nc(-c2ccc(-c3cc(Cl)c(NC(=O)c4ccc(N5CCN(C(=O)C(C)(C)N(C)C)C[C@H]5C)nc4)cc3OC(F)(F)F)cc2)c[nH]1)C(C)C [Example 12-20],< 0.1 nM
5,COC(=O)N[C@H](C(=O)N1C[C@@H](C)C[C@H]1c1nc(-c2ccc(-c3cc(Cl)c(NC(=O)c4ccc(N5CCN(C(=O)C(C)(C)CNC(=O)CCCC(=O)O)C[C@H]5C)nc4)cc3OC(F)(F)F)cc2)c[nH]1)C(C)C [Example 12-34],0.1 to 1 nM
6,COC(=O)N[C@@H](CCCCN)C(=O)N1C[C@@H](C)C[C@H]1c1nc(-c2ccc(-c3cc(Cl)c(NC(=O)c4ccc(N5CCN(C(=O)C(C)(C)C)C[C@H]5C)nc4)cc3OC(F)(F)F)cc2)c[nH]1 [Example 13-33],< 0.1 nM
7,COC(=O)NC(C(=O)N1C[C@@H](C)C[C@H]1c1nc(-c2ccc(-c3cc(Cl)c(NC(=O)c4ccc(N5CCN(C(=O)C(C)(C)C)C[C@H]5C)nc4)cc3OC(F)(F)F)cc2)c[nH]1)C1COC1 (stereo partly drawn) [Example 13-44],0.1 to 1 nM
8,COC(=O)N[C@H](C(=O)N1C[C@@H](N(C)C(C)C)C[C@H]1c1nc(-c2ccc(-c3cc(Cl)c(NC(=O)c4ccc(N5CCN(C(=O)C(C)(C)C)C[C@H]5C)nc4)cc3OC(F)(F)F)cc2)c[nH]1)C(C)C [Example 15-7],< 0.1 nM
